Source: patent US8618289B2 (Ambit Biosciences Corporation, priority 2008, dated 2013)
pEC50, pIC50, pKd: −log10 of the molar value. Where a name gives a salt, the structure may show the parent alone. Read-outs that look alike come from different tables or passages of the source.

How the values were obtained:
[1] = system: MEK1 phosphorylation in the A375 human melanoma cell line; experiment: cells; details: A-375, read-out: pMEK IC50
RAF kinases [2] = target: T1, RAF kinases (Homo sapiens, UniProt P15056, V600E); experiment: biochemical
T1 sequence (P15056 whole entry V600E): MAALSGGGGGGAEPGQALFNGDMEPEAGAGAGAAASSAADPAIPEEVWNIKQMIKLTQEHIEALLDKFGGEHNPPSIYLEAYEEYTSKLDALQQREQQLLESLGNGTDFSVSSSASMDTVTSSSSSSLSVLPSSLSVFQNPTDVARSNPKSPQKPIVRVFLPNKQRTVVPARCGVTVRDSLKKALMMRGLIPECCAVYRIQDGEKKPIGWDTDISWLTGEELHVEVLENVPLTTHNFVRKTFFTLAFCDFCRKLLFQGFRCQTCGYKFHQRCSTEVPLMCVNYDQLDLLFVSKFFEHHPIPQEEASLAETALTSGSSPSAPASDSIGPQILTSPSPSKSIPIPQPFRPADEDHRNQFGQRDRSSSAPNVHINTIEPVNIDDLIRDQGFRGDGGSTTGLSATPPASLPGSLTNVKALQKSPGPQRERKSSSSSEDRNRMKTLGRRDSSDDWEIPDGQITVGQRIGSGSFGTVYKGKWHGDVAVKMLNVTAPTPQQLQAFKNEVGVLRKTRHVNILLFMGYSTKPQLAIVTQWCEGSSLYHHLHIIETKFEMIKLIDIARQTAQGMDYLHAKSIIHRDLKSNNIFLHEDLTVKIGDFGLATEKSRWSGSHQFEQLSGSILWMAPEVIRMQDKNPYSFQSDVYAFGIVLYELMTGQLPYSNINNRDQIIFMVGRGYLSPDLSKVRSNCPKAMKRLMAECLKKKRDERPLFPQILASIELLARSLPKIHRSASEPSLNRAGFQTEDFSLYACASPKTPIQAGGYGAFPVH

A375 cells = experiment: cells; details: Homo sapiens, A-375, read-out: A375 Viability EC50
RAF kinases [3] = target: RAF kinases (Homo sapiens, UniProt P04049); experiment: biochemical
Sequence of RAF kinases (Homo sapiens, UniProt P04049) (P04049 whole entry): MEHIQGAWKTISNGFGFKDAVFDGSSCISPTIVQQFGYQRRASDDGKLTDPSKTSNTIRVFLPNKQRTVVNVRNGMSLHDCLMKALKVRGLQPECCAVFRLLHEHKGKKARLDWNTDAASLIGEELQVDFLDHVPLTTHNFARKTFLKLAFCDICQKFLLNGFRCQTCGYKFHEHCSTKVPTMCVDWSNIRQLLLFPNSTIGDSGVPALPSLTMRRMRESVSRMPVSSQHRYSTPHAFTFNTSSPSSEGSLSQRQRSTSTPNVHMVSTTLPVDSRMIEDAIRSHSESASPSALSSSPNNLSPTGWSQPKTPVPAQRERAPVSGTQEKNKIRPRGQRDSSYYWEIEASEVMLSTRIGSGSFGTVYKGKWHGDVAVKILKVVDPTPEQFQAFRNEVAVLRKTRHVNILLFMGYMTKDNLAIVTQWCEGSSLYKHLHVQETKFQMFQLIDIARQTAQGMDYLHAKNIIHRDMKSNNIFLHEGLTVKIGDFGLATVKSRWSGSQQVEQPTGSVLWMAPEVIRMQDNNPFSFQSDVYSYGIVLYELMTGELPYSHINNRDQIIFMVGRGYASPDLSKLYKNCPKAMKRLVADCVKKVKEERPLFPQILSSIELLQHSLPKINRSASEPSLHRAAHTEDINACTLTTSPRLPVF

RAF kinases [4] = target: RAF kinases (Homo sapiens, UniProt P15056); experiment: biochemical
Sequence of RAF kinases (Homo sapiens, UniProt P15056) (P15056 whole entry): as the sequence (P15056 whole entry V600E) above, with E600V counted along it

RAF kinases [5] = target: T1, RAF kinases; details: read-out: BRAF V600E Kd; BRAF V600E

Row | Compound | pIC50 [1] | pKd (RAF kinases [2]) | pEC50 (A375 cells) | pKd (RAF kinases [3]) | pKd (RAF kinases [4]) | pKd (RAF kinases [5])
1 | COc1cc2ncnc(Oc3cc(NC(=O)Nc4cc(C(C)(C)C)on4)ccc3Cl)c2cc1OC [Ex 10, 1-(5-tert-butylisoxazol-3-yl)-3-(4-chloro-3-(6,7-dimethoxyquinazolin-4-yloxy)phenyl)urea] | < 6.00 | 6.00 to 6.30 | < 6.00 | – | – | –
2 | CCOc1cc2ncnc(Oc3cccc(NC(=O)Nc4cc(C(C)(C)C)on4)c3)c2cc1OCC [Ex 13, 1-(5-tert-butylisoxazol-3-yl)-3-[3-(6,7-diethoxyquinazolin-4-yloxy)phenyl]urea hydrochloride] | 6.30 to 6.60 | 6.30 to 6.60 | 6.00 to 6.30 | – | – | –
3 | CC(C)(C)c1cc(NC(=O)Nc2cccc(Sc3ncnc4cc(F)c(F)cc34)c2)no1 [Ex 47, 1-(5-tert-butylisoxazol-3-yl)-3-(3-(6,7-difluoroquinazolin-4-ylthio)phenyl)urea] | < 6.00 | 6.00 to 6.30 | < 6.00 | – | – | –
4 | COc1ccc2c(Sc3cccc(NC(=O)Nc4cc(C(C)(C)C)on4)c3)ncnc2c1 [Ex 48, 1-(5-tert-butylisoxazol-3-yl)-3-(3-(7-methoxyquinazolin-4-ylthio)phenyl)urea] | 6.00 to 6.30 | 6.30 to 6.60 | < 6.00 | – | – | –
5 | CCOc1cc2ncnc(Sc3cccc(NC(=O)Nc4cc(C(C)(C)C)on4)c3)c2cc1OCC [Ex 51, 1-(5-tert-butylisoxazol-3-yl)-3-[3-(6,7-diethoxyquinazolin-4-ylthio)phenyl]urea] | 6.30 to 6.60 | 6.00 to 6.30 | < 6.00 | – | – | –
6 | CC(C)(C)c1cc(NC(=O)Nc2cccc(Sc3ncnc4cc5c(cc34)OCCO5)c2)no1 [Ex 54, 1-(5-tert-butylisoxazol-3-yl)-3-[3-(7,8-dihydro-[1,4]dioxino[2,3-g]quinazolin-4-ylthio)phenyl]urea hydrochloride] | 6.00 to 6.30 | 6.00 to 6.30 | < 6.00 | – | – | –
7 | COc1cc2c(Oc3cccc(NC(=O)Nc4cc(C(C)(C)C)on4)c3)ncnc2cc1O[C@H]1CCN(CC(F)F)C1 [Ex 103, (S)-1-(5-tert-butylisoxazol-3-yl)-3-(3-{7-[1-(2,2-difluoroethyl)pyrrolidin-3-yloxy]-6-methoxyquinazolin-4-yloxy}phenyl)urea] | 6.00 to 6.30 | 6.30 to 6.60 | < 6.00 | – | – | –
8 | COc1cc2ncnc(Oc3cccc(NC(=O)Nc4cc(C(C)(C)C)on4)c3)c2cc1O[C@H]1CCN(C(=O)OC(C)(C)C)C1 [Ex 108, (S)-tert-butyl 3-(4-(3-(3-(5-tert-butylisoxazole-3-yl)ureido)phenoxy)-7-methoxyquinazolin-6-yloxy)pyrrolidine-1-carboxylate] | > 6.60 | 6.00 to 6.30 | 6.00 to 6.30 | – | – | –
9 | COCC(C)(C)c1cc(NC(=O)Nc2cccc(Oc3ncnc4cc(OC)c(OC)cc34)c2)no1 [Ex 130, 1-(3-(6,7-dimethoxyquinazolin-4-yloxy)phenyl)-3-(5-(1-methoxy-2-methylpropan-2-yl)isoxazol-3-yl)urea] | 6.30 to 6.60 | 6.30 to 6.60 | < 6.00 | – | – | –
10 | COCCOc1cc(NC(=O)Nc2cccc(Sc3ncnc4cc(OC)c(OC)cc34)c2)ccc1C(F)(F)F [Ex 148, 1-(3-(6,7-dimethoxyquinazolin-4-ylthio)phenyl)-3-(3-(2-methoxyethoxy)-4-(trifluoromethyl)phenyl)urea] | < 6.00 | 6.00 to 6.30 | < 6.00 | – | – | –
11 | COc1cc2ncnc(Sc3cccc(NC(=O)Nc4cc(C5(C(F)(F)F)CCC5)no4)c3)c2cc1OC [Ex 156, 1-(3-(6,7-dimethoxyquinazolin-4-ylthio)phenyl)-3-(3-(1-(trifluoromethyl)cyclobutyl)isoxazol-5-yl)urea] | 6.00 to 6.30 | 6.00 to 6.30 | < 6.00 | – | – | –
12 | CCOC(=O)Cn1nc(C(C)(C)C)cc1NC(=O)Nc1cccc(Oc2ncnc3cc(OC)c(OC)cc23)c1 [Ex 166, ethyl 2-(3-tert-butyl-5-{3-[3-(6,7-dimethoxyquinazolin-4-yloxy)phenyl]ureido}-1H-pyrazol-1-yl)acetate] | 6.00 to 6.30 | 6.30 to 6.60 | < 6.00 | – | – | –
13 | COc1cc2ncnc(Sc3cccc(NC(=O)Nc4ccc(C(F)(F)F)c(OC)c4)c3)c2cc1OC [Ex 190, 1-(3-(6,7-dimethoxyquinazolin-4-ylthio)phenyl)-3-(3-methoxy-4-(trifluoromethyl)phenyl)urea] | < 6.00 | 6.00 to 6.30 | < 6.00 | – | – | –
14 | COc1ccc(-n2nc(C(C)(C)C)cc2NC(=O)Nc2cccc(Oc3ncnc4cc(OC)c(OC)cc34)c2)cc1 [Ex 361, 1-(3-tert-butyl-1-(4-methoxyphenyl)-1H-pyrazol-5-yl)-3-(3-(6,7-dimethoxyquinazolin-4-yloxy)phenyl)urea] | > 6.60 | – | < 6.00 | 6.00 to 6.30 | 6.30 to 6.60 | > 6.60
15 | CCOc1cc2ncnc(Oc3cccc(NC(=O)Nc4cc(C(F)(F)F)nn4-c4ccccc4)c3)c2cc1OC [Example 384, 1-(3-(7-ethoxy-6-methoxyquinazolin-4-yloxy)phenyl)-3-(1-phenyl-3-(trifluoromethyl)-1H-pyrazol-5-yl)urea] | 6.00 to 6.30 | – | 6.30 to 6.60 | 6.30 to 6.60 | 6.00 to 6.30 | > 6.60

Continued, values first:

Row | pIC50 [1] | pKd (RAF kinases [2]) | pEC50 (A375 cells) | pKd (RAF kinases [3]) | pKd (RAF kinases [4]) | pKd (RAF kinases [5]) | Compound
16 | < 6.00 | 6.00 to 6.30 | < 6.00 | – | – | – | COc1cc2ncnc(Oc3cccc(NC(=O)Nc4cc(C(=O)N5CCOCC5)cc(C(F)(F)F)c4)c3)c2cc1OC [Ex 149, 1-(3-(6,7-dimethoxyquinazolin-4-yloxy)phenyl)-3-(3-(morpholine-4-carbonyl)-5-(trifluoromethyl)phenyl)urea]
17 | > 6.60 | 6.00 to 6.30 | – | – | – | – | COc1cc2ncnc(Oc3cccc(NC(=O)Nc4cc(C(C)(C)C)nn4-c4ccccc4)c3)c2cc1OC [Ex 153, 1-(3-tert-butyl-1-phenyl-1H-pyrazol-5-yl)-3-(3-(6,7-dimethoxyquinazolin-4-yloxy)phenyl)urea]
18 | 6.30 to 6.60 | 6.30 to 6.60 | < 6.00 | – | – | – | COc1cc2ncnc(Oc3cccc(NC(=O)Nc4cc(C5(C(F)(F)F)CCC5)no4)c3)c2cc1OC [Ex 155, 1-(3-(6,7-dimethoxyquinazolin-4-yloxy)phenyl)-3-(3-(1-(trifluoromethyl)cyclobutyl)isoxazol-5-yl)urea]
19 | > 6.60 | 6.00 to 6.30 | 6.30 to 6.60 | – | – | – | COc1cc2ncnc(Oc3cccc(NC(=O)Nc4cc(C(F)(F)F)nn4-c4ccccc4)c3)c2cc1OC [Ex 161, 1-[3-(6,7-dimethoxyquinazolin-4-yloxy)phenyl]-3-[1-phenyl-3-(trifluoromethyl)-1H-pyrazol-5-yl]urea]
20 | > 6.60 | 6.00 to 6.30 | < 6.00 | – | – | – | CCOC(C)(C)c1cc(NC(=O)Nc2cccc(Oc3ncnc4cc(OC)c(OC)cc34)c2)n(-c2ccccc2)n1 [Ex 168, 1-[3-(6,7-dimethoxyquinazolin-4-yloxy)phenyl]-3-[3-(2-ethoxypropan-2-yl)-1-phenyl-1H-pyrazol-5-yl]urea]
21 | 6.30 to 6.60 | 6.00 to 6.30 | 6.30 to 6.60 | – | – | – | COc1cc2ncnc(Oc3cccc(NC(=O)Nc4cc(C(F)(F)F)nn4-c4ccc(F)cc4)c3)c2cc1OC [Ex 171, 1-[3-(6,7-dimethoxyquinazolin-4-yloxy)phenyl]-3-[1-(4-fluorophenyl)-3-(trifluoromethyl)-1H-pyrazol-5-yl]urea]
22 | > 6.60 | 6.00 to 6.30 | > 6.60 | – | – | – | COc1cc2ncnc(Oc3cccc(NC(=O)Nc4cc(C(F)(F)F)nn4-c4ccc(C)cc4)c3)c2cc1OC [Ex 172, 1-[3-(6,7-dimethoxyquinazolin-4-yloxy)phenyl]-3-[1-p-tolyl-3-(trifluoromethyl)-1H-pyrazol-5-yl]urea]
23 | 6.30 to 6.60 | 6.30 to 6.60 | 6.00 to 6.30 | – | – | – | COc1cc2ncnc(Sc3cccc(NC(=O)Nc4ccc(Cl)c(C(F)(F)F)c4)c3)c2cc1OC [Ex 186, 1-(4-chloro-3-(trifluoromethyl)phenyl)-3-(3-(6,7-dimethoxyquinazolin-4-ylthio)phenyl)urea]
24 | > 6.60 | 6.00 to 6.30 | 6.30 to 6.60 | – | – | – | COc1cc2ncnc(Sc3cccc(NC(=O)Nc4cc(C(F)(F)F)nn4-c4ccccc4)c3)c2cc1OC [Ex 192, 1-[3-(6,7-dimethoxyquinazolin-4-ylthio)phenyl]-3-[1-phenyl-3-(trifluoromethyl)-1H-pyrazol-5-yl]urea]
25 | < 6.00 | – | < 6.00 | 6.30 to 6.60 | 6.30 to 6.60 | > 6.60 | COc1cc2ncnc(Oc3cccc(NC(=O)Nc4cnn(C(C)(C)C)c4)c3)c2cc1OC [Ex 252, 1-(1-tert-butyl-1H-pyrazol-4-yl)-3-(3-(6,7-dimethoxyquinazolin-4-yloxy)phenyl)urea]
26 | 6.00 to 6.30 | – | < 6.00 | 6.30 to 6.60 | 6.00 to 6.30 | > 6.60 | COc1cc2ncnc(Oc3cccc(NC(=O)Nc4cc(C(F)(F)F)nn4-c4ccccc4)c3C)c2cc1OC [Ex 291, 1-(3-(6,7-Dimethoxyquinazolin-4-yloxy)-2-methylphenyl)-3-(1-phenyl-3-(trifluoromethyl)-1H-pyrazol-5-yl)urea]
27 | > 6.60 | – | > 6.60 | 6.30 to 6.60 | 6.00 to 6.30 | > 6.60 | COc1cc2ncnc(Oc3cccc(NC(=O)Nc4cc(C(C)(C)C)nn4-c4cnccc4C)c3)c2cc1OC [Ex 303, 1-(3-tert-butyl-1-(4-methylpyridin-3-yl)-1H-pyrazol-5-yl)-3-(3-(6,7-dimethoxyquinazolin-4-yloxy)phenyl)urea]
28 | 6.00 to 6.30 | – | 6.00 to 6.30 | 6.00 to 6.30 | 6.00 to 6.30 | > 6.60 | COc1cc2c(Oc3cccc(NC(=O)Nc4cc(C(F)(F)F)nn4-c4ccccc4)c3)ncnc2cc1OCCN1CCOCC1 [Ex 396, 1-(3-(6-Methoxy-7-(2-morpholinoethoxy)quinazolin-4-yloxy)phenyl)-3-(1-phenyl-3-(trifluoromethyl)-1H-pyrazol-5-yl)urea]
